These results are taken from patent publication US12391685B2, “Inhibitors of RNA-guided nuclease target binding and uses thereof” (THE BROAD INSTITUTE, INC., priority 2018, dated 2025).

The structures appear in SMILES notation.

The target in assay [1] is T1, SpCas9 (Streptococcus pyogenes serotype M1, UniProt Q99ZW2). Put plainly: Cellular thermal shift assay (CETSA) in WM793 melanoma cells. The settings on record: 15 μM, 24 h, WM793 cells stably expressing SpCas9. It counts as cell-based, S. pyogenes. On the procedure:
Cellular Thermal Shift Assay (CETSA). Approximately 1× 10^6 cells pre-incubated with either DMSO or 15 μM BRD0539 for 24 h were resuspended in PBS and transferred to 200 μL PCR tubes. The suspended cells were heated to a different temperature for 3 min followed by lysis in 100 μL RIPA buffer containing protease inhibitors at 4° C. for 30 min. The clear cell lysate was collected by centrifuging the suspensions at 20,000×g for 20 min. The supernatant was transferred to a fresh tube and processed for Western blotting. Western blotting was performed using SDS-PAGE. In a typical experiment, 10 μg of proteins were electrophoresed on a 4-12% Bis-Tris gel and proteins were transferred to a PVDF membrane and probed with primary anti-SpCas9 antibody (abcam #ab191468). The membrane was imaged and bands were quantified using the LI-COR Odyssey imaging system. The CETSA curves were fitted with the equation, y=(U-L)/(1+e^(−(A/T−1)B))+L where, U and L are the upper and lower asymptotes, A is a half-way temperature, and B controls the slope of the sigmoid; temperature T is expressed in K. After the fitting, the data were re-normalized by dividing by U and the Tm was calculated using the formula Tm=AB/(B+log(1−2L/U)).

The target of assay [2] is FnCpf1 (Francisella tularensis subsp. novicida, UniProt A0Q7Q2). It is filed as cell-based. The settings on record: 6-20 μM, 30 h.
Assay [3] deals with T2, dCas9-based transcription-activation complex (Streptococcus pyogenes serotype M1, UniProt Q99ZW2, D10A, form not given).
T2 construct: "dSpCas9|Feng Zhang lab|NA"; The MS2-p65-HSF1(-GFP) effector is a separate chain recruited through MS2 aptamers in the sgRNA
In words: dCas9-based transcription activation of HBG1 in HEK293FT cells (RT-qPCR). The settings on record: 20 μM. It counts as cell-based, S. pyogenes. On the procedure: Transcription activation experiments and quantitative RT-PCR analyses. HEK293FT cells were maintained in high glucose DMEM with glutamax (Life Technologies) and supplemented with 10% FBS (Life Technologies), 1% penicillin-streptomycin (Life Technologies) and 1 mM sodium pyruvate (Life Technologies). For transcription activation experiments, 20,000 cells/well were plated in a poly D-lysine-coated 96-well plate. The cells were transiently transfected with a 1:1:1 mass ratio of the dCas9 plasmid, MS2-P65-HSF1 effector plasmid and the sgRNA plasmid targeting the HBG1 gene or an RFP control plasmid. A total of 0.3 μg plasmid DNA was transfected using Lipofectamine 2000 (Life Technologies) according to manufacturer's protocol. Immediately after transfection, the cells were treated with an appropriate dose of the small-molecule inhibitors. A DMSO solution of compound (20 mM) was resuspended in the 10% FBS containing growth media and thoroughly mixedbefore adding to the cells. After 48 h the cells were lysed and 5 μL of the cell lysate was used to perform reverse transcription using the RevertAid RT Reverse Transcription Kit (Thermo Fischer Scientific) as described by Joung J. et al. qPCR reactions were performed to quantify RNA expression using the TaqMan probes (Life Technologies, HBG1/HBG2: Hs00361131_g1, ACTB: Hs01060665_g1) and TaqMan Fast Advanced Master Mix (Life Technologies) in 5 μL multiplexed reactions and 384-well format using the LightCycler 480 Instrument II (Roche). For each sample, four technical replicates were performed. Data were analyzed using the LightCycler 480 software (Roche) by the ΔΔCt method: Ct values for the gene of interest (HBG1) were normalized to Ct values for the housekeeping gene (ACTB), and fold-changes in the expression level of gene of interest were normalized to RFP-transfected control. The data is reported as mean±S.E.M. for technical replicates.
Background: Real-time PCR tracks product formation cycle by cycle.

The target of assay [4] is T1, SpCas9. In words: NHEJ assay in HEK293T cells. It is filed as cell-based, S. pyogenes. The following applies: 2-10 μM, 24 h. On the procedure: NHEJ assay. Approximately 8,000 cells/well were seeded in a 96-well plate 24 h before transient transfection with a total 100 ng of DN66 (mCherry—TAG—GFP reporter) and DN78 (SpCas9 and gRNA) plasmids (1:1) using Lipofectamine 2000 (Life Technologies) (Nguyen et al., 2016b). Transfected cells were incubated with the indicated amount of small molecule or DMSO for 24 h. Cells were then fixed using 4% paraformaldehyde and imaged with the HCS NuclearMask™ Blue Stain (Life Technologies) as the nuclear counter-staining agent. Imaging was performed with an ImageXpress Micro automated microscope (Molecular Devices) at 4× magnification under three excitation channels (blue, green and red) with 9 acquisition sites per well. Images were analyzed in the MetaXpress software to determine the % NHEJ and the data were plotted using GraphPad Prism 6. The Z′-value was calculated following the formula: Z′=1−(3(σ1+σ2))/(|μ1−μ2|) where σ1 and σ2 are the standard deviations of DN66 transfected wells and (DN66+DN78) transfected wells respectively. μ1 and μ2 are the mean % GFP cell population for DN66 transfected wells and (DN66+DN78) transfected wells respectively.

T1 sequence (Q99ZW2 whole entry): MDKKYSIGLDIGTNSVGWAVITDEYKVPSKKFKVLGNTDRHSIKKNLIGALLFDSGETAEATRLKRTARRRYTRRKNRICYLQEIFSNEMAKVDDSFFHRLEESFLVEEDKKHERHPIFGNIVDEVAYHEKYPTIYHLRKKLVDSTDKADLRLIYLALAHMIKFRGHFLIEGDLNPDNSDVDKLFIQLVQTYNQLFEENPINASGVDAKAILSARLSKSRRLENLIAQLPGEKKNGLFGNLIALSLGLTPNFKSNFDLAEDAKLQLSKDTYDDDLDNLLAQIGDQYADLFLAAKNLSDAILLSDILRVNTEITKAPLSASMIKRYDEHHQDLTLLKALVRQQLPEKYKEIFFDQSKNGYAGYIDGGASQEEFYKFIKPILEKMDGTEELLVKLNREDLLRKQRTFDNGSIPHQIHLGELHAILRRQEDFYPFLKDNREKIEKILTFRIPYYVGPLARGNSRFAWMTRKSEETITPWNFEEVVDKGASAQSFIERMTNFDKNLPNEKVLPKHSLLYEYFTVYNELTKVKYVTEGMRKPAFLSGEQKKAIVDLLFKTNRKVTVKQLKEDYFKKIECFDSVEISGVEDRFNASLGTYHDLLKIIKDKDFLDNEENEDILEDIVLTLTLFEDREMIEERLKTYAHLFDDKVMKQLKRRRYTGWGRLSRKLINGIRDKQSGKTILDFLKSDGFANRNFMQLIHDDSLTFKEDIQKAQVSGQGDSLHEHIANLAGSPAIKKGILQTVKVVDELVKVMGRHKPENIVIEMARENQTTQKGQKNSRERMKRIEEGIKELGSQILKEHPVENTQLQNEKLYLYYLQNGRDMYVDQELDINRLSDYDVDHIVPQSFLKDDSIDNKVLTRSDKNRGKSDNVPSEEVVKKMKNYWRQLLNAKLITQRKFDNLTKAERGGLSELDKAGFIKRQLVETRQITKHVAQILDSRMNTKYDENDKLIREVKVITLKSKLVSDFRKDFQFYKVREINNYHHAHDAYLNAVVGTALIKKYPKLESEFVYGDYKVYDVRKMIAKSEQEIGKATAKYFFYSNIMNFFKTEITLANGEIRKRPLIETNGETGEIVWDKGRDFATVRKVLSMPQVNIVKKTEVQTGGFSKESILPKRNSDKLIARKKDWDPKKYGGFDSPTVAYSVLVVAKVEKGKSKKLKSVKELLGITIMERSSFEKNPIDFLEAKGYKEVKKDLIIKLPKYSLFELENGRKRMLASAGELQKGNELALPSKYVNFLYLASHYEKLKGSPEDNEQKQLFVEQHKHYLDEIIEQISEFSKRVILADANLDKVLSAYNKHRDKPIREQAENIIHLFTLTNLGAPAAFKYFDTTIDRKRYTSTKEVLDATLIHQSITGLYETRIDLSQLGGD
T2 sequence (Q99ZW2 whole entry, form open, one chain of several, change not shown): as the sequence (Q99ZW2 whole entry) above
Chain of FnCpf1 (A0Q7Q2 whole entry, looked up): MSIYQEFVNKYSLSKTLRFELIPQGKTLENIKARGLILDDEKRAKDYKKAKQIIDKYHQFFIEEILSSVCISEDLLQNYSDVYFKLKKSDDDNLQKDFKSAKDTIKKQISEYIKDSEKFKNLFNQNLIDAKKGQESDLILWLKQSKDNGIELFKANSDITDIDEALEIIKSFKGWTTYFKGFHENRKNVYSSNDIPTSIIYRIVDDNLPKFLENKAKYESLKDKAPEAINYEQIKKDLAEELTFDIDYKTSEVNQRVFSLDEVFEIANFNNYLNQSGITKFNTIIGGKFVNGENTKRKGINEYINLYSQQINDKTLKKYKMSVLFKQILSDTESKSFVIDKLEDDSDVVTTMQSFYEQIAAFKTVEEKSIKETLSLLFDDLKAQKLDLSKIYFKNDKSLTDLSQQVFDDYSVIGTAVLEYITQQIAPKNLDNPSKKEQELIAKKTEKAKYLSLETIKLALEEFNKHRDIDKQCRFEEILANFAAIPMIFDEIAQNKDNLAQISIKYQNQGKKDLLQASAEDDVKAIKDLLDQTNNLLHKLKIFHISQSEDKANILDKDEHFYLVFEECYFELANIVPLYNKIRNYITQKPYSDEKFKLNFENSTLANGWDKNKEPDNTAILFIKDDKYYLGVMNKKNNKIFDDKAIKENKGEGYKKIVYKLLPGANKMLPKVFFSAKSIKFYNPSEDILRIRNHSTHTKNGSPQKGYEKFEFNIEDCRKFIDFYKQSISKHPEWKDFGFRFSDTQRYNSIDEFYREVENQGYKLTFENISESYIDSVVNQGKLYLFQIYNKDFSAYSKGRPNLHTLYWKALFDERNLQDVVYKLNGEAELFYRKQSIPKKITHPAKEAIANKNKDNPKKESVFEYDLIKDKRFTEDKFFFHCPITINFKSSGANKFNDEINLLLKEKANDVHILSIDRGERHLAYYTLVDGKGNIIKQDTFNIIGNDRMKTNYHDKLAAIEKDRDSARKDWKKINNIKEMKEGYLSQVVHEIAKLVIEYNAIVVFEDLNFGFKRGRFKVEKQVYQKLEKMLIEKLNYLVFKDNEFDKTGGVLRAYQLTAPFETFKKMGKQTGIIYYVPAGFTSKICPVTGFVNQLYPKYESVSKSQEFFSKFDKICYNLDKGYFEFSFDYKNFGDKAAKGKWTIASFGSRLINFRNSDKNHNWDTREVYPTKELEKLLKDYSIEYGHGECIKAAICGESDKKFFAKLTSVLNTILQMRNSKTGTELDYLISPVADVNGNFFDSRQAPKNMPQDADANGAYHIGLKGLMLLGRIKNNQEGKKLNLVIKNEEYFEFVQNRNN

Turning to `Cc1ccc(S(=O)(=O)N2CC[C@@H]3[C@H](CO)Nc4ccc(-c5ccccc5F)cc4[C@@H]32)cc1` [BRD0539, ((3aR,4R,9bR)-8-(2-fluorophenyl)-1-tosyl-2,3,3a,4,5,9b-hexahydro-1H-pyrrolo[3,2-c]quinolin-4-yl) methanol], in assay [1], the “lowering in the melting temperature of SpCas9” value was around 2.5 °C. Also, the “inhibition of FnCpf1 (in words)” value in assay [2] was “unable to inhibit”.

As for `OC[C@H]1Nc2ccc(-c3cccc(F)c3)cc2[C@H]2[C@@H]1CCN2Cc1ccncc1` [BRD7087, ((3aR,4S,9bR)-8-(3-Fluorophenyl)-1-(pyridin-4-ylmethyl)-2,3,3a,4,5,9b-hexahydro-1H-pyrrolo[3,2-c]quinolin-4-yl) methanol], the “inhibition of transcriptional activation” value in assay [3] is recorded as around 60%. For the same compound, in assay [4], the “inhibition of SpCas9 in the NHEJ assay (in words)” value was “dose-dependent inhibition”.
